Measurements: US6635641B2 (Agouron Pharmaceuticals, Inc., priority 2000, dated 2003)

Key:
[1] = target: T1, phosphorylated VEGF-R2Δ50 (Homo sapiens, UniProt P35968, DEL940-989/E990V); experiment: VEGF-R2 ELISA assay (phosphogastrin formation); format: biochemical; settings: @ 10 μM (ELISA); read-out: FLVK-P percent inhibition (ELISA)
T1 construct: VEGF-R2Δ50 contains residues 806-939 and 990-1171; made in house; host or cells: baculovirus/insect cells
From the text: A construct (VEGF-R2Δ50) of the cytosolic domain of human vascular endothelial growth factor receptor 2 (VEGF-R2) lacking the 50 central residues of the 68 residues of the kinase insert domain was expressed in a baculovirus/insect cell system. Of the 1356 residues of full-length VEGF-R2, VEGF-R2Δ50 contains residues 806-939 and 990-1171, and also one point mutation (E990V) within the kinase insert domain relative to wild-type VEGF-R2. See commonly assigned, co-pending U.S. patent application Ser. No. 09/390,326, filed Sep. 7, 1999, incorporated by reference herein, for discussion of VEGF constructs and expression systems. Autophosphorylation of the purified construct was performed by incubation of the enzyme at a concentration of 4 μM in the presence of 3 mM ATP and 40 mM MgCl2 in 100 mM Hepes, pH 7.5, containing 5% glycerol and 5 mM DTT, at 4° C. for 2 h. […]
Formation of phosphogastrin was monitored using biotinylated gastrin peptide (1-17) as substrate. […] The activity of horseradish peroxidase was monitored using 2,2′-azino-di-[3-ethylbenzathiazoline sulfonate(6)] diammonium salt (ABTS). […] The horseradish peroxidase reaction was quenched by addition of acid (H2SO4), followed by absorbance reading at 405 nm. Ki values were determined by measuring enzyme activity in the presence of varying concentrations of test compounds. The data were analyzed using Enzyme Kinetic and Kaleidagraph software.

[2] = system: human umbilical vein endothelial cells (HUVEC); experiment: HUVEC proliferation assay (VEGF-stimulated, MTT); format: cell-based; settings: Homo sapiens, HUVEC; read-out: HUVEC IC50
How it was run: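 Exponentially growing HUVEC (passage 3-4) were serum-starved 24 h in F12K + 1% FBS, given test compound (final DMSO 0.1%), then stimulated 1 h later with VEGF at 6 ng/ml final. Proliferation read after 72 h by 4 h MTT dye reduction, absorbance at 595.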

[3] = target: T2, unphosphorylated VEGF-R2Δ50 (FLVK) (Homo sapiens, UniProt P35968, DEL940-989/E990V); experiment: VEGF-R2 coupled spectrophotometric assay, unphosphorylated construct (FLVK); format: biochemical;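 note: Baculovirus-expressed cytosolic kinase domain, ADP formation linked via pyruvate kinase and lactate dehydrogenase to NADH oxidation, read as falling absorbance at 340 nm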
T2 construct: VEGF-R2Δ50 contains residues 806-939 and 990-1171; made in house; host or cells: baculovirus/insect cells

[4] = system: lung cancer cells (line MV522); experiment: Cancer cell proliferation (MV522) assay (MTT); format: cell-based; settings: MV522
How it was run: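 Proliferation was read by MTT reduction 72 h after compound addition, in a 4-day protocol with no starvation step. Two thousand MV522 cells were seeded in RPMI1640 with 10% FBS and 2 mM glutamine and given 1 day to attach before dosing.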

CDK4/Cyclin D3 complex = target: T3, CDK4/Cyclin D3 complex (Homo sapiens, UniProt P11802); experiment: CDK4/Cyclin D assay ([32P]ATP incorporation into Rb fragment); format: biochemical; settings: μM
T3 construct: made in house; host or cells: insect cells co-infected with baculovirus vectors
Protocol: A complex of human CDK4 and cyclin D3, or a complex of cyclin D1 and a fusion protein of human CDK4 and glutathione-S-transferase (GST-CDK4), was purified using traditional biochemical chromatographic techniques from insect cells that had been co-infected with the corresponding baculovirus expression vectors.
(§1) Cyclin-dependent kinase activity was measured by quantifying the enzyme-catalyzed, time-dependent incorporation of radioactive phosphate from [^32P]ATP into a recombinant fragment of the retinoblastoma protein. Unless noted otherwise, assays were performed in 96-well plates in a total volume of 50 μL, in the presence of 10 mM HEPES (N-[2-hydroxyethyl]piperazine-N′-[2-ethanesulfonic acid]) (pH 7.4), 10 mM MgCl2, 25 μM adenosine triphosphate (ATP), 1 mg/mL ovalbumin, 5 μg/mL leupeptin, 1 mM dithiothreitol, 10 mM β-glycerophosphate, 0.1 mM sodium vanadate, 1 mM sodium fluoride, 2.5 mM ethylene glycol-bis(β-aminoethyl ether)-N,N,N′N′-tetraacetic acid (EGTA), 2% (v/v) dimethylsulfoxide, and 0.03-0.2 μCi [^32P]ATP. The substrate (0.3-0.5 μg) was purified recombinant retinoblastoma protein fragment (Rb) (residues 386-928 of the native retinoblastoma protein; 62.3 kDa, containing the majority of the phosphorylation sites found in the native 106-kDa protein, as well as a tag of six histidine residues for ease of purification). Reactions were initiated with CDK2 (150 nM CDK2/Cyclin A complex) or CDK4 (50 nM CDK4/Cyclin D3 complex), incubated at 30° C., and terminated after 20 minutes by the addition of ethylenediaminetetraacetic acid (EDTA) to 250 mM. The phosphorylated substrate was then captured on a nitrocellulose membrane using a 96-well filtration manifold, and unincorporated radioactivity was removed by repeated washing with 0.85% phosphoric acid. Radioactivity was quantified by exposing the dried nitrocellulose membranes to a phosphorimager. Apparent Ki values were measured by assaying enzyme activity in the presence of different compound concentrations and subtracting the background radioactivity measured in the absence of enzyme. The kinetic parameters (kcat, Km for ATP) were measured for each enzyme under the usual assay conditions by determining the dependence of initial rates on ATP concentration. The data were fit to an equation for competitive inhibition using Kaleidagraph (Synergy Software), or were fit to an equation for competitive tight-binding inhibition using the software KineTic (BioKin, Ltd.). Measured Ki values for known inhibitors against CDK4 and CDK2 agreed with published IC50 values. The specific activity of CDK4 was the same whether complexed to full-length cyclin D3 or the truncated Cyclin D3 construct; both complexes also yielded very similar Ki values for selected inhibitors.

CDK2/Cyclin A complex = CDK2/Cyclin A complex (Homo sapiens, UniProt P24941); experiment: CDK2/Cyclin A assay ([32P]ATP incorporation into Rb fragment); format: biochemical; settings: μM
Protocol: CDK2 was purified using published methodology (Rosenblatt et al., J. Mol. Biol., 230, 1317-1319 (1993)) from insect cells that had been infected with a baculovirus expression vector. Cyclin A was purified from E. coli cells expressing full-length recombinant cyclin A, and a truncated cyclin A construct was generated by limited proteolysis and purified as described previously (Jeffrey et al., Nature, 376, 313-320 (1995)).
as §1, with “The specific activity of CDK4 was the same whether complexed to full-length cyclin D3 or the truncated Cyclin D3 construct; both complexes also yielded very similar Ki values for selected inhibitors.” left out

[5] = target: T4, phosphorylated VEGF-R2Δ50 (FLVK-P) (Homo sapiens, UniProt P35968, DEL940-989/E990V); experiment: VEGF-R2 coupled spectrophotometric assay, phosphorylated construct (FLVK-P); format: biochemical
T4 construct: VEGF-R2Δ50 contains residues 806-939 and 990-1171; made in house; host or cells: baculovirus/insect cells
How it was run: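 Baculovirus-expressed VEGF-R2Δ50 (residues 806-939/990-1171, E990V), optionally autophosphorylated; ADP formation coupled via PK/LDH to NADH oxidation at 340 nm, pH 7.5 Hepes. FLVK-P: 1 mM ATP, 5.1 mM poly(E4Y1), 25 mM MgCl2; FLVK: 3 mM ATP, 20 mM poly(E4Y1), 60 mM MgCl2, 2 mM MnCl2. Ki from activity over compound concentrations.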

T2 sequence (P35968 with tags, fused parts or gaps DEL940-989/E990V limits assumed): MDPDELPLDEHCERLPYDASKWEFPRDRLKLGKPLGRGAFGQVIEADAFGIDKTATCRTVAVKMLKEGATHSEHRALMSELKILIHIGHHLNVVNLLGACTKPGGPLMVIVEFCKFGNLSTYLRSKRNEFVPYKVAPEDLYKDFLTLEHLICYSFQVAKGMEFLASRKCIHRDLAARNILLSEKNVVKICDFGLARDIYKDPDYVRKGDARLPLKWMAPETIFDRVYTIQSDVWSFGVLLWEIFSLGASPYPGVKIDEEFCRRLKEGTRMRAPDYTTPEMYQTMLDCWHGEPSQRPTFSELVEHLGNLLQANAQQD
T1 sequence (P35968 with tags, fused parts or gaps DEL940-989/E990V limits assumed): as above
T4 sequence (P35968 with tags, fused parts or gaps DEL940-989/E990V limits assumed): as above
T3 sequence (P11802 whole entry, the tested form may be a part): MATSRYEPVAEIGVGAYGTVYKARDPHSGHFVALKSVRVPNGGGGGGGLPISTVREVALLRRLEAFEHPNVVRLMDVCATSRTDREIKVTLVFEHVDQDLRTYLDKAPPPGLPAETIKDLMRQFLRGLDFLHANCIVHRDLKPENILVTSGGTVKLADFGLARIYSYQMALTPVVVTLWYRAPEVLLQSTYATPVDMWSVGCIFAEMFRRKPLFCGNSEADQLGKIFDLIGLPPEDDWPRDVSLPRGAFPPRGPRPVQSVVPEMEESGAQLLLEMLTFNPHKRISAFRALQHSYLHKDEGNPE
T3 sequence (P30281 whole entry partner, the tested form may be a part): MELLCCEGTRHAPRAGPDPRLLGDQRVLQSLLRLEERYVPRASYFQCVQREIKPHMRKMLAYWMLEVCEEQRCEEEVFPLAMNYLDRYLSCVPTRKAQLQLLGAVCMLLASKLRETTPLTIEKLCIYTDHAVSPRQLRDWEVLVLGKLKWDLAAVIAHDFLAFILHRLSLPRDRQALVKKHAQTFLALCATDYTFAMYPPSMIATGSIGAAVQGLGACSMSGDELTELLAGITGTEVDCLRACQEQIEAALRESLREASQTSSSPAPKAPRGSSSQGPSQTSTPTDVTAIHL

O=C(NCc1ccc2c(c1)OCO2)c1cccc(CSc2ncnc3[nH]ncc23)c1 [Example B-6, N-(1,3-Benzodioxyl-5-ylmethyl)-3-[(1H-pyrazolo[3,4-d]pyrimidin-4-yl)sulfanylmethyl]benzamide]
inhibition at 10 µM [1]: 62%

COc1cc(NC(=O)c2cccc(SCc3cc(Nc4ccccc4)n[nH]3)c2)cc(OC)c1OC [Example E-2]
IC50 [2]: 55 nM | Ki [3]: 0.95 nM | IC50 [4]: > 10000 nM | Ki (CDK4/Cyclin D3 complex): > 100 µM | Ki (CDK2/Cyclin A complex): > 100 µM | melting point: 67 to 69 °C | Ki [5]: 4.79 nM
